Reference: ChEMBL document CHEMBL5356967, “Design, synthesis, evaluation and optimization of novel azole analogues as potent antifungal agents” (Bioorg Med Chem, 2024)
In brackets after ≈: the same amount, converted by molar mass.

What was measured:
Assay type in all cases: functional
Candida tropicalis = assay: Antifungal activity against Candida tropicalis 0370354 assessed as inhibition of fungal growth incubated for 24 hrs by broth microdilution method
Trichophyton rubrum = assay: Antifungal activity against Trichophyton rubrum 0501124 assessed as inhibition of fungal growth incubated for 24 hrs by broth microdilution method
Candida albicans [1] = assay: Antifungal activity against Candida albicans Y0109 assessed as inhibition of fungal growth incubated for 24 hrs by broth microdilution method
Aspergillus fumigatus = assay: Antifungal activity against Aspergillus fumigatus 0504656 assessed as inhibition of fungal growth incubated for 48 hrs by broth microdilution method
Candida parapsilosis = assay: Antifungal activity against Candida parapsilosis 0306392 assessed as inhibition of fungal growth incubated for 24 hrs by broth microdilution method; conditions: Lodderomyces parapsilosis
Cryptococcus neoformans = assay: Antifungal activity against Cryptococcus neoformans ATCCBLS108 assessed as inhibition of fungal growth incubated for 72 hrs by broth microdilution method
Candida albicans [2] = assay: Antifungal activity against Candida albicans SC5314 assessed as inhibition of fungal growth incubated for 24 hrs by broth microdilution method
Nannizzia gypsea = assay: Antifungal activity against Microsporum gypseum 0310388 assessed as inhibition of fungal growth incubated for 24 hrs by broth microdilution method
Candida albicans [3] = assay: Potency index, ratio of Fluconazole MIC80 to test compound MIC80 for antifungal activity against Candida albicans Y0109 assessed as inhibition of fungal growth incubated for 24 hrs by broth microdilution method
Candida albicans [4] = assay: Potency index, ratio of Ketoconazole MIC80 to test compound MIC80 for antifungal activity against Candida albicans SC5314 assessed as inhibition of fungal growth incubated for 24 hrs by broth microdilution method
Candida albicans [5] = assay: Antifungal activity against fluconazole-resistant Candida albicans 901 assessed as inhibition of fungal growth incubated for 24 hrs by broth microdilution method
Candida albicans [6] = assay: Antifungal activity against fluconazole-resistant Candida albicans 904 assessed as inhibition of fungal growth incubated for 24 hrs by broth microdilution method
Candida albicans [7] = assay: Potency index, ratio of Fluconazole MIC80 to test compound MIC80 for antifungal activity against Candida albicans SC5314 assessed as inhibition of fungal growth incubated for 24 hrs by broth microdilution method
Candida albicans [8] = assay: Potency index, ratio of Ketoconazole MIC80 to test compound MIC80 for antifungal activity against Candida albicans Y0109 assessed as inhibition of fungal growth incubated for 24 hrs by broth microdilution method

Row | SMILES | MIC80 (Candida tropicalis) | MIC80 (Trichophyton rubrum) | MIC80 (Candida albicans [1]) | MIC80 (Aspergillus fumigatus) | MIC80 (Candida parapsilosis) | MIC80 (Cryptococcus neoformans) | MIC80 (Candida albicans [2]) | MIC80 (Nannizzia gypsea) | Ratio (Candida albicans [3]) | Ratio (Candida albicans [4]) | MIC80 (Candida albicans [5]) | MIC80 (Candida albicans [6]) | Ratio (Candida albicans [7]) | Ratio (Candida albicans [8])
1 | Oc1ccc([C@@]2(Cn3ccnc3)OC[C@H](Cn3cc(COc4ccccc4)nn3)O2)c(F)c1 (mixture of isomers) | 0.125 µg/mL | 1 µg/mL | 0.063 µg/mL | 16 µg/mL | 0.125 µg/mL | 0.063 µg/mL | 0.063 µg/mL | 0.25 µg/mL | – | – | – | – | – | –
2 | CNCCc1cn(C[C@H]2CO[C@](Cn3ccnc3)(c3ccc(O)cc3F)O2)nn1 (mixture of isomers) | 0.25 µg/mL | 1 µg/mL | 0.063 µg/mL | > 64 µg/mL | 0.25 µg/mL | 0.125 µg/mL | 0.125 µg/mL | 0.25 µg/mL | – | – | – | – | – | –
3 | CCCN(CCC)CCc1cn(C[C@H]2CO[C@](Cn3ccnc3)(c3ccc(O)cc3F)O2)nn1 (mixture of isomers) | 1 µg/mL | 0.125 µg/mL | 0.016 µg/mL | > 64 µg/mL | 0.25 µg/mL | 0.125 µg/mL | 0.016 µg/mL | 0.125 µg/mL | 16 | 64 | > 64 µg/mL | > 64 µg/mL | 16 | 64
4 | CCCCCOc1ccc(-c2cn(C[C@H]3CO[C@](Cn4ccnc4)(c4ccc(O)cc4F)O3)nn2)cc1 (mixture of isomers) | 1 µg/mL | 0.5 µg/mL | 0.016 µg/mL | 16 µg/mL | 0.125 µg/mL | 0.063 µg/mL | 0.016 µg/mL | 0.25 µg/mL | 16 | 64 | > 64 µg/mL | > 64 µg/mL | 16 | 64
5 | CC1CCN(CCc2cn(C[C@H]3CO[C@](Cn4ccnc4)(c4ccc(O)cc4F)O3)nn2)CC1 (mixture of isomers) | 0.25 µg/mL | 1 µg/mL | 0.063 µg/mL | > 64 µg/mL | 0.125 µg/mL | 0.063 µg/mL | 0.016 µg/mL | 0.25 µg/mL | – | – | – | – | – | –
6 | Oc1ccc([C@@]2(Cn3ccnc3)OC[C@H](Cn3cc(CCN4CCC(O)CC4)nn3)O2)c(F)c1 (mixture of isomers) | 0.25 µg/mL | 0.25 µg/mL | 0.063 µg/mL | 16 µg/mL | 0.125 µg/mL | 0.125 µg/mL | 0.016 µg/mL | 0.125 µg/mL | – | – | – | – | – | –
7 | Oc1ccc([C@@]2(Cn3ccnc3)OC[C@H](Cn3cc(CCN4CCCC4)nn3)O2)c(F)c1 (mixture of isomers) | 0.25 µg/mL | 0.25 µg/mL | 0.063 µg/mL | 16 µg/mL | 0.125 µg/mL | 0.063 µg/mL | 0.063 µg/mL | 0.5 µg/mL | – | – | – | – | – | –
8 | CCN(CC)CCc1cn(C[C@H]2CO[C@](Cn3ccnc3)(c3ccc(O)cc3F)O2)nn1 (mixture of isomers) | 0.125 µg/mL | 0.25 µg/mL | 0.016 µg/mL | 16 µg/mL | 0.125 µg/mL | 0.063 µg/mL | 0.016 µg/mL | 0.125 µg/mL | 16 | 64 | > 64 µg/mL | > 64 µg/mL | 16 | 64
9 | Oc1ccc([C@@]2(Cn3ccnc3)OC[C@H](Cn3cc(CCNC4CC4)nn3)O2)c(F)c1 (mixture of isomers) | 0.125 µg/mL | 0.125 µg/mL | 0.063 µg/mL | > 64 µg/mL | 0.25 µg/mL | 0.125 µg/mL | 0.125 µg/mL | 0.25 µg/mL | – | – | – | – | – | –
10 | CCC(C)n1ncn(-c2ccc(N3CCN(c4ccc(OCC5COC(Cn6cncn6)(c6ccc(Cl)cc6Cl)O5)cc4)CC3)cc2)c1=O (configuration not stated) [ITRACONAZOLE] | 0.25 µg/mL (≈ 0.354 µM) | 0.063 µg/mL (≈ 0.0893 µM) | 0.063 µg/mL (≈ 0.0893 µM) | 1 µg/mL (≈ 1.42 µM) | 0.25 µg/mL (≈ 0.354 µM) | 0.063 µg/mL (≈ 0.0893 µM) | 0.25 µg/mL (≈ 0.354 µM) | 0.25 µg/mL (≈ 0.354 µM) | – | – | – | – | – | –
11 | CC(=O)N1CCN(c2ccc(OC[C@@H]3CO[C@@](Cn4ccnc4)(c4ccc(Cl)cc4Cl)O3)cc2)CC1 [LEVOKETOCONAZOLE] | 32 µg/mL (≈ 60.2 µM) | 4 µg/mL (≈ 7.53 µM) | 1 µg/mL (≈ 1.88 µM) | > 64 µg/mL | 2 µg/mL (≈ 3.76 µM) | 1 µg/mL (≈ 1.88 µM) | 1 µg/mL (≈ 1.88 µM) | 16 µg/mL (≈ 30.1 µM) | – | – | > 64 µg/mL | > 64 µg/mL | – | –
12 | C[C@@H](c1ncncc1F)[C@](O)(Cn1cncn1)c1ccc(F)cc1F [VORICONAZOLE] | 0.063 µg/mL (≈ 0.18 µM) | 0.063 µg/mL (≈ 0.18 µM) | 0.016 µg/mL (≈ 0.0458 µM) | 0.25 µg/mL (≈ 0.716 µM) | 0.016 µg/mL (≈ 0.0458 µM) | 0.016 µg/mL (≈ 0.0458 µM) | 0.016 µg/mL (≈ 0.0458 µM) | 0.063 µg/mL (≈ 0.18 µM) | – | – | – | – | – | –

Second part, led by results:

Row | MIC80 (Candida tropicalis) | MIC80 (Trichophyton rubrum) | MIC80 (Candida albicans [1]) | MIC80 (Aspergillus fumigatus) | MIC80 (Candida parapsilosis) | MIC80 (Cryptococcus neoformans) | MIC80 (Candida albicans [2]) | MIC80 (Nannizzia gypsea) | SMILES | Ratio (Candida albicans [3]) | Ratio (Candida albicans [4]) | MIC80 (Candida albicans [5]) | MIC80 (Candida albicans [6]) | Ratio (Candida albicans [7]) | Ratio (Candida albicans [8])
13 | 0.25 µg/mL | 4 µg/mL | 0.063 µg/mL | 16 µg/mL | 0.25 µg/mL | 0.25 µg/mL | 0.25 µg/mL | 0.125 µg/mL | Oc1ccc([C@@]2(Cn3ccnc3)OC[C@H](Cn3cc(C4CC4)nn3)O2)c(F)c1 (mixture of isomers) | – | – | – | – | – | –
14 | 4 µg/mL | 4 µg/mL | 0.063 µg/mL | 16 µg/mL | 0.25 µg/mL | 0.125 µg/mL | 0.25 µg/mL | 0.125 µg/mL | Oc1ccc([C@@]2(Cn3ccnc3)OC[C@H](Cn3cc(-c4ccccn4)nn3)O2)c(F)c1 (mixture of isomers) | – | – | – | – | – | –
15 | 4 µg/mL | 2 µg/mL | 0.063 µg/mL | > 64 µg/mL | 2 µg/mL | 0.25 µg/mL | 0.125 µg/mL | 2 µg/mL | CCCc1ccc(-c2cn(C[C@H]3CO[C@](Cn4ccnc4)(c4ccc(O)cc4F)O3)nn2)cc1 (mixture of isomers) | – | – | – | – | – | –
16 | 0.25 µg/mL | 4 µg/mL | 0.063 µg/mL | > 64 µg/mL | 2 µg/mL | 2 µg/mL | 0.063 µg/mL | 4 µg/mL | Cc1ccc(-c2cn(C[C@H]3CO[C@](Cn4ccnc4)(c4ccc(O)cc4F)O3)nn2)cc1 (mixture of isomers) | – | – | – | – | – | –
17 | 0.25 µg/mL | 2 µg/mL | 0.063 µg/mL | > 64 µg/mL | 0.25 µg/mL | 0.125 µg/mL | 0.063 µg/mL | 0.125 µg/mL | Cc1cccc(-c2cn(C[C@H]3CO[C@](Cn4ccnc4)(c4ccc(O)cc4F)O3)nn2)c1 (mixture of isomers) | – | – | – | – | – | –
18 | 0.5 µg/mL | 0.25 µg/mL | 0.063 µg/mL | > 64 µg/mL | 0.125 µg/mL | 0.125 µg/mL | 0.125 µg/mL | 0.125 µg/mL | Oc1ccc([C@@]2(Cn3ccnc3)OC[C@H](Cn3cc(-c4ccccc4)nn3)O2)c(F)c1 (mixture of isomers) | – | – | – | – | – | –
19 | 0.125 µg/mL | 1 µg/mL | 0.063 µg/mL | > 64 µg/mL | 0.125 µg/mL | 0.063 µg/mL | 0.125 µg/mL | 0.25 µg/mL | Oc1ccc([C@@]2(Cn3ccnc3)OC[C@H](Cn3cc(C(O)c4ccccc4)nn3)O2)c(F)c1 (mixture of isomers) | – | – | – | – | – | –
20 | 1 µg/mL | 2 µg/mL | 0.063 µg/mL | > 64 µg/mL | 0.125 µg/mL | 1 µg/mL | 0.125 µg/mL | 1 µg/mL | Oc1ccc([C@@]2(Cn3ccnc3)OC[C@H](Cn3cc(-c4cccc(F)c4)nn3)O2)c(F)c1 (mixture of isomers) | – | – | – | – | – | –
21 | 0.125 µg/mL | 0.25 µg/mL | 0.063 µg/mL | > 64 µg/mL | 0.125 µg/mL | 0.063 µg/mL | 0.063 µg/mL | 0.25 µg/mL | CC(C)(C)c1ccc(-c2cn(C[C@H]3CO[C@](Cn4ccnc4)(c4ccc(O)cc4F)O3)nn2)cc1 (mixture of isomers) | – | – | – | – | – | –
22 | 4 µg/mL | 4 µg/mL | 0.063 µg/mL | > 64 µg/mL | 0.25 µg/mL | 0.125 µg/mL | 0.125 µg/mL | 0.125 µg/mL | Oc1ccc([C@@]2(Cn3ccnc3)OC[C@H](Cn3cc(-c4ccc(F)cc4)nn3)O2)c(F)c1 (mixture of isomers) | – | – | – | – | – | –
23 | 1 µg/mL | 0.25 µg/mL | 0.063 µg/mL | 16 µg/mL | 0.125 µg/mL | 0.125 µg/mL | 0.125 µg/mL | 0.125 µg/mL | N#CCc1ccc(-c2cn(C[C@H]3CO[C@](Cn4ccnc4)(c4ccc(O)cc4F)O3)nn2)cc1 (mixture of isomers) | – | – | – | – | – | –
24 | 0.25 µg/mL | 0.5 µg/mL | 0.063 µg/mL | > 64 µg/mL | 0.125 µg/mL | 0.063 µg/mL | 0.063 µg/mL | 0.25 µg/mL | COc1ccc(-c2cn(C[C@H]3CO[C@](Cn4ccnc4)(c4ccc(O)cc4F)O3)nn2)cc1 (mixture of isomers) | – | – | – | – | – | –
